The values below come from patent US20050019836A1, “Bioanalytical reagent, method for production thereof, sensor platforms and detection methods based on use of said bioanalytical reagent” (priority 2000, published 2005).

In test [1] the target is T1, 5HT3A receptor (Mus musculus, UniProt P23979).
T1 construct: Transient expression of the full wild-type receptor was achieved by co-transfection; expressed in transfected cells; host or cells: HEK293
T1 sequence (P23979 24-489): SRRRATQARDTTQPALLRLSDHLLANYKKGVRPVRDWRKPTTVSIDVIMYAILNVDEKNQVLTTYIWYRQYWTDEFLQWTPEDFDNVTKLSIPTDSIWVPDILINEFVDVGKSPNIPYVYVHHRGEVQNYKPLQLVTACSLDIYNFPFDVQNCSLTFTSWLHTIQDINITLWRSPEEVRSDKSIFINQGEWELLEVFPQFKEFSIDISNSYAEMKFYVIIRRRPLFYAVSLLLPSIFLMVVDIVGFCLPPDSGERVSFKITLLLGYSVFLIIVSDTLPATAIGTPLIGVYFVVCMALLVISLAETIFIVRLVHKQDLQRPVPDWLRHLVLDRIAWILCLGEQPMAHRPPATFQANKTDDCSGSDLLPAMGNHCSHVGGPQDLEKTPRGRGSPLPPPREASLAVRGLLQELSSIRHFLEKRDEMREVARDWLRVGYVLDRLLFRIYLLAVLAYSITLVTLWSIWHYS
Nature of the test: competitive radiological binding assay with [3H]-GR65630, receptor in whole mother cells.

The target in test [2] is T1, 5HT3A receptor. Nature of the test: competitive radiological binding assay with [3H]-GR65630, receptor in "native" vesicles in solution. The method, then:
To this end, samples of said reagent were incubated with the vesicles in solution for 60 minutes at room temperature with 1.5 nM of the tritium-labeled ligand [^3H]-GR65630 in 240 μl HEPES buffer (10 mM HEPES, pH 7.4) (HEPES: 4-(2-hydroxyethyl)piperazine-1-ethanesulfonic acid) in 96-well MultiScreen plates (Millipore, F-Molsheim). The incubation was completed by rapid filtration followed by washing 3 times with 300 μl of ice-cold HEPES buffer each time. The filters were transferred to scintillation vessels and each taken up in 1 ml of Ultima Gold TM (Packard, meridan, USA). The radioactivity was measured using a TriCarb 2200CA liquid scintillation counter. The extent of nonspecific binding to the receptor and to the vesicles was estimated in the presence of a high surplus of quipazine (1 μM). The dissociation constant Kd was determined from Scatchard plots in 6 different concentrations of the ligand [^3H]-GR65630. […] All experiments were carried out in duplicate.

For the next test, the target named is T2, 5HT3A serotonin receptor (Mus musculus, UniProt P23979).
T2 construct: expressed in transfected cells; host or cells: HEK cells
T2 sequence (P23979 24-489): T1 sequence (P23979 24-489)
Nature of the test: agonist-induced calcium signal (Fluo-3) in "native" vesicles with incorporated 5HT3A receptor. The class given is cell-based. The following applies: 350 μM agonist; Fluo-3 loaded vesicles. The method, then: In this case, the original HEK cells from which the vesicles were obtained following the addition of cytochalasin according to the method described hereinabove were loaded with the acetoxymethyl ester of Fluo-3 as calcium indicator (generally 20 μg Fluo-3 in 500 μl DMEM/F12 medium). The prepared vesicles contained said fluorescent calcium indicator and parts of the endoplasmic reticulum in addition to the 5HT3A receptor.
Fluorescence excitation of the Fluo-3 was performed at 488 nm. The emission was measured at 500-530 nm. The vesicles loaded with Fluo-3 were then stimulated with 350 μM m-chlorophenylbiguanide hydrochloride (mCPG), a receptor-specific agonist. Stimulation was performed by addition of the agonist to the vesicle medium (t=0 sec). The maximum fluorescence signal that occurred through binding of the calcium to the calcium indicator Fluo-3 was already measured less than one minute after addition of the agonist. The value amounted to 35 μM free calcium ions in the vesicle interior, i.e. in the cytosol surrounded by the vesicle. With the aid of calcium indicator Fluo-3, free calcium ions are detected only in the cytosol (vesicle lumen) transferred from the cell of origin. Calcium ions in the endoplasmic reticulum or in other cell organelles or parts of cell organelles possibly included in the vesicle are not determined by this detection method.
The increase in the fluorescence signal up to its maximum value after less than one minute and the subsequent decrease in the fluorescence signal to its baseline value after a further 2 minutes, i.e. after a total of 3 minutes following addition of the agonist, is a sign of the intact functional capacity of the complete mechanism of the signal transduction cascade within the vesicle, i.e. of the ability of the vesicle to “buffer” the concentration of free calcium ions. This includes the action of sodium-calcium exchangers, in addition to the timespan until closure of the receptor's ion channel and desensitization mechanisms characteristic of serotonin.

Test [3] concerns the target T1, 5HT3A receptor. Nature of the test: fluorescent ligand binding to surface-immobilized "native" vesicles (confocal fluorescence microscopy). The following applies: individual discrete immobilized vesicles (n=3) from HEK293 cells; fit with Langmuir isotherm; read-out: dissociation constant Kd. The method, then: The ligand-binding experiments in surface-immobilized vesicles were carried out using the fluorescence-labeled ligand GR-Cy5. For these experiments, a homologous serotonin receptor construct 5HT3A was used that was expressed with an EGFP (Enhanced Green Fluorescent Protein, Clontech) fused at the end of a subunit. The prepared “native” vesicles were immobilized on cover glasses by means of physical adsorption of the vesicles to the glasses, by two-hour or overnight incubation of typically 400 μl of a vesicle preparation solution prepared according to the above method in 6-well plates with cover glasses on the bottom at 4° C. […]
The affinity of the fluorescent ligand for receptors bound to individual, discrete vesicles was determined by sequential addition of ascending concentrations of the fluorescent ligand to one and the same cover glass with vesicles immobilized thereon by overnight incubation. […]
The fluorescence intensities of the ligand were measured with a confocal fluorescence microscope (Zeiss, Laser Scanning Microscope LSM510), using a suitable filter set. The fluorescence signal of the GFP additionally incorporated into the vesicles was used in each case to adjust the microscope to the working distance of the plane in which the vesicles lay before the ligand was added. […]

The mark [4] stands for this setting: HEK293 mother cells, competition with 1.5 nM [3H]-GR65630, 60 min, room temperature.
Setting [5] is: vesicles from HEK293 cells in solution, competition with 1.5 nM [3H]-GR65630, 60 min, room temperature.
The mark [6] stands for this setting: HEK293 mother cells, competition with 1.5 nM [3H]-GR65630, 60 min, room temperature, read-out: pKi, receptor in mother cell (converted).
The mark [7] stands for this setting: vesicles from HEK293 cells in solution, competition with 1.5 nM [3H]-GR65630, 60 min, room temperature, read-out: pKi, receptor in "native" vesicles (converted).

On to `Cc1[nH]cnc1CC1CCc2c(c3ccccc3n2CCCN)C1=O` (stereo not shown) [GR-H], for which the Ki on 5HT3A receptor [1] was 0.0631 nM; on 5HT3A receptor [2] it was 0.2 nM.

In the case of `N=C(N)NC(=N)Nc1cccc(Cl)c1` [mCPBG, m-Chlorophenylbiguanide], the “pKi, receptor in mother cell” value at 5HT3A receptor [1] (setting [4]) is listed as 8.2 ± 0.1. Also, the “pKi, receptor in "native" vesicles” value at 5HT3A receptor [2] (setting [5]) came to 8.3 ± 0.1.

In the case of `Cc1[nH]cnc1CCC(=O)c1cn(C)c2ccccc12` [[^3H]-GR65630], at 5HT3A receptor [1] (setting [4]), the “pKi, receptor in mother cell” value was 9.0 ± 0.1. Besides, the “pKi, receptor in "native" vesicles” value on 5HT3A receptor [2] (setting [5]) amounted to 9.4 ± 0.1.

As for `Cl.N=C(N)NC(=N)Nc1cccc(Cl)c1` [mCPG, m-chlorophenylbiguanide hydrochloride], at 5HT3A serotonin receptor, the “free calcium ions in the vesicle interior at maximum fluorescence signal” value came out at 35 µM, the “time to maximum fluorescence signal after addition of the agonist” value is listed as “less than one” and the “total time until decrease of fluorescence signal to baseline value after addition of the agonist” value amounted to 3 min.

Turning to `Cc1nccn1CC1CCc2c(c3ccccc3n2C)C1=O` (stereo not shown) [Ondansetron, 1,2,3,9-tetrahydro-9-methyl-3-[(2-methyl-1H-imidazol-1-yl)methyl]-4H-carbazol-4-one], the values for the Ki at 5HT3A receptor [1] and on 5HT3A receptor [2] were 3.16 nM and 2.51 nM, respectively.

In the case of `c1ccc2nc(N3CCNCC3)ccc2c1` [Quipazine, 2-(1-Piperazinyl)quinoline], the Ki on 5HT3A receptor [1] (setting [6]) was 0.501 nM; at 5HT3A receptor [2] (setting [7]), 0.398 nM.

For the compound `N=C(N)NC(=N)Nc1ccccc1` [PBG, Phenylbiguanide], the Ki on 5HT3A receptor [1] (setting [6]) was 316 nM; on 5HT3A receptor [2] (setting [7]), 251 nM.

Regarding “1,2,3,9-tetrahydro-3-[(5-methyl-1H-imidazol-4-yl)methyl]-9-(3-amino-(N-rhodamineB-thiocarbamoyl)-propyl)-4H-carbazol-4-one [GR-Rho]”, the Kd (as a rule, the equilibrium constant for the complex coming apart) on 5HT3A receptor [3] came to 4.2 nM.
